Experimental findings from PMC3265452 (PLoS Neglected Tropical Diseases, 2012) are described below.

Structures can show the parent of a compound that is named as a salt.

The first test deals with AaDOP2 (Aedes aegypti, UniProt H6D5H2). As to the kind of experiment: AaDOP2 antagonist screen of the LOPAC1280 library (HEK-CRELuc-Aadop2 cells, luminescence). In kind it is cell-based.
Sequence of AaDOP2 (H6D5H2 1-476): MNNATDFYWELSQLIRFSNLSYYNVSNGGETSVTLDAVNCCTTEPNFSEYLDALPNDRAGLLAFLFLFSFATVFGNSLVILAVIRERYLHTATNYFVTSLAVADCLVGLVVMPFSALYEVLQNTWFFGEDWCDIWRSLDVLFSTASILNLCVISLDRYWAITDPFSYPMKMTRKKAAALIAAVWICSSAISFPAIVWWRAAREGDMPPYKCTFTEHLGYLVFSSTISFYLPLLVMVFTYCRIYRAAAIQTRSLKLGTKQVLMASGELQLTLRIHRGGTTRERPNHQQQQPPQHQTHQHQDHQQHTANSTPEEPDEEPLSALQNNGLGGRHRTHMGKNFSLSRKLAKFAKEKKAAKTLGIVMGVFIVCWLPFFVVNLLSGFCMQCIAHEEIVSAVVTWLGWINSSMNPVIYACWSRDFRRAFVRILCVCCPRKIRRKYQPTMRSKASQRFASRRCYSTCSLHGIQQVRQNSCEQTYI
Conditions: not given
Take “2-Methylthioadenosine diphosphate trisodium [Compound 826]”: the “Compound effect (percent receptor signaling in presence of test compound, relative lux units relative to the SCH23390 control)” value turned out to be 92. Same read-out and setting: with “2-Methylthioadenosine triphosphate tetrasodium [Compound 120]” the figure was 99; with “17alpha-hydroxyprogesterone [Compound 593]”, 83; with `CCOC(=O)[C@]12CC1/C(=N\O)c1ccccc1O2` (mixture of isomers) [Compound 318, CPCCOEt], 58. Take `CC(N)(Cc1ccc(O)cc1)C(=O)O` (racemic) [Compound 1, DL-alpha-Methyl-p-tyrosine]: the “Compound effect (percent receptor signaling in presence of test compound, relative lux units relative to the SCH23390 control)” value stood at 95. Still for that read-out and setting: with `O=C(O)C1CCCNC1` (racemic) [Compound 5, (±)-Nipecotic acid] the figure was 99. Same read-out and setting: with `NC(CCP(=O)(O)O)C(=O)O` (racemic) [Compound 31, (±)-2-Amino-4-phosphonobutyric acid] the figure was 124. For `NC(CP(=O)(O)O)C(=O)O` (racemic) [Compound 55, (±)-2-Amino-3-phosphonopropionic acid], the “Compound effect (percent receptor signaling in presence of test compound, relative lux units relative to the SCH23390 control)” value amounted to 102. Take `NC(CCCCCP(=O)(O)O)C(=O)O` (racemic) [Compound 57, (±)-2-Amino-7-phosphonoheptanoic acid]: the “Compound effect (percent receptor signaling in presence of test compound, relative lux units relative to the SCH23390 control)” value came out at 93. As to `CCC1(c2ccc(N)cc2)CCC(=O)NC1=O` (racemic) [Compound 109, (±)-p-Aminoglutethimide], the “Compound effect (percent receptor signaling in presence of test compound, relative lux units relative to the SCH23390 control)” value is listed as 106. On to `NC1CCN(O)C1=O` (racemic) [Compound 110, (±)-HA-966], for which the “Compound effect (percent receptor signaling in presence of test compound, relative lux units relative to the SCH23390 control)” value amounted to 107. Same read-out and setting: with `C=CCN1CC[C@@]2(C)c3cc(O)ccc3C[C@@H]1[C@@H]2C.Cl` (racemic) [Compound 131, (±)-N-Allylnormetazocine hydrochloride] the figure was 105; with `CCCCS(=N)(=O)CCC(N)C(=O)O` (racemic) [Compound 168, DL-Buthionine-[S,R]-sulfoximine], 77; with `COC(=O)C1=C(C)NC(C)=C([N+](=O)[O-])C1c1ccccc1C(F)(F)F` (racemic) [Compound 203, (±)-Bay K 8644], 73. Take `CN(C)CCC(c1ccc(Cl)cc1)c1ccccn1.O=C(O)/C=C\C(=O)O` (racemic) [Compound 243, (±)-Chlorpheniramine maleate]: the “Compound effect (percent receptor signaling in presence of test compound, relative lux units relative to the SCH23390 control)” value stood at 77. For the compound `O=C(O)C1CN(CCCP(=O)(O)O)CCN1` (racemic) [Compound 329, (±)-CPP], the “Compound effect (percent receptor signaling in presence of test compound, relative lux units relative to the SCH23390 control)” value is listed as 91. As for `Oc1cc2c(cc1O)[C@H]1c3ccccc3CN[C@@H]1CC2` (racemic) [Compound 398, Dihydrexidine hydrochloride], the “Compound effect (percent receptor signaling in presence of test compound, relative lux units relative to the SCH23390 control)” value is given as 110. On the same count and under the same terms, with `Cl.Oc1cc2c(cc1O)C(c1ccccc1)CNCC2` (racemic) [Compound 444, (±)-SKF-38393 hydrochloride] the figure was 101. On to `COc1cc(CC(C)N)c(OC)cc1I.Cl` (racemic) [Compound 447, (±)-DOI hydrochloride], for which the “Compound effect (percent receptor signaling in presence of test compound, relative lux units relative to the SCH23390 control)” value was 86. Still for that read-out and setting: as for `CC(N)c1cccc(Cl)c1Cl.Cl` (racemic) [Compound 448, (±)-2,3-Dichloro-alpha-methylbenzylamine hydrochloride], the figure is 84.

On to `CCCCCCCCCCCCCCCC(=O)NCC(COP(=O)([O-])OCC[N+](C)(C)C)OCC` (racemic) [Compound 488, rac-2-Ethoxy-3-hexadecanamido-1-propylphosphocholine], for which the “Compound effect (percent receptor signaling in presence of test compound, relative lux units relative to the SCH23390 control)” value was found to be 42. On to `CCCCCCCCCCCCCCCCCC(=O)NCC(COP(=O)([O-])OCC[N+](C)(C)C)OCC` (racemic) [Compound 489, rac-2-Ethoxy-3-octadecanamido-1-propylphosphocholine], for which the “Compound effect (percent receptor signaling in presence of test compound, relative lux units relative to the SCH23390 control)” value stood at 65. Consider `COc1cc(C(O)C(=O)O)ccc1O` (racemic) [Compound 573, (±)-Vanillylmandelic acid], for which the “Compound effect (percent receptor signaling in presence of test compound, relative lux units relative to the SCH23390 control)” value amounted to 115. On the same count and under the same terms, as for `NC(Cc1cc(O)c(O)cc1O)C(=O)O` (racemic) [Compound 584, 6-Hydroxy-DL-DOPA], the figure is 101. Still for that read-out and setting: as for `N[C@H](C(=O)O)c1cc(O)no1` (racemic) [Compound 642, (±)-Ibotenic acid], the figure is 105. Regarding `CC(C)Cc1ccc(C(C)C(=O)O)cc1` (racemic) [Compound 646, (±)-Ibuprofen], the “Compound effect (percent receptor signaling in presence of test compound, relative lux units relative to the SCH23390 control)” value came out at 98. For the compound `COC(=O)C(C)(N)Cc1ccc(O)cc1.Cl` (racemic) [Compound 759, alpha-Methyl-DL-tyrosine methyl ester hydrochloride], the “Compound effect (percent receptor signaling in presence of test compound, relative lux units relative to the SCH23390 control)” value is listed as 101.

For `COCCc1ccc(OCC(O)CNC(C)C)cc1.COCCc1ccc(OCC(O)CNC(C)C)cc1.O=C(O)C(O)C(O)C(=O)O` (racemic) [Compound 777, (±)-Metoprolol (+)-tartrate], the “Compound effect (percent receptor signaling in presence of test compound, relative lux units relative to the SCH23390 control)” value is given as 98.

The same test, now with this note: 10 µM compound, 300 nM dopamine, 2 hr; hit = compound effect <20.
Turning to `NC[C@H](O)c1ccc(O)c(O)c1.O=C(O)C(O)C(O)C(=O)O` (racemic) [Compound 22, (±)-Norepinephrine (+)bitartrate], the “Compound effect (percent receptor signaling in presence of test compound, relative lux units relative to the SCH23390 control)” value is listed as 102%.

Regarding `NC(CCCP(=O)(O)O)C(=O)O` (racemic) [Compound 58, (±)-2-Amino-5-phosphonopentanoic acid], the “Compound effect (percent receptor signaling in presence of test compound, relative lux units relative to the SCH23390 control)” value came out at 89%.

In the case of `N[C@@]1(C(=O)O)CC[C@@H](C(=O)O)C1` (racemic) [Compound 130, trans-(±)-ACPD], the “Compound effect (percent receptor signaling in presence of test compound, relative lux units relative to the SCH23390 control)” value worked out at 116%. On the same count and under the same terms, as for `CN(C)CCC(c1ccc(Br)cc1)c1ccccn1.O=C(O)/C=C\C(=O)O` (racemic) [Compound 165, (±)-Brompheniramine maleate], the figure is 63%.

In the case of `NCC(CC(=O)O)c1ccc(Cl)cc1` (racemic) [Compound 177, (±)-Baclofen], the “Compound effect (percent receptor signaling in presence of test compound, relative lux units relative to the SCH23390 control)” value is recorded as 111%. As for `COC(=O)C(N)Cc1ccc(Cl)cc1.Cl` (racemic) [Compound 248, DL-p-Chlorophenylalanine methyl ester hydrochloride], the “Compound effect (percent receptor signaling in presence of test compound, relative lux units relative to the SCH23390 control)” value is listed as 71%.

Regarding `NC(Cc1ccc(Cl)cc1)C(=O)O` (racemic) [Compound 285, (±)-p-Chlorophenylalanine], the “Compound effect (percent receptor signaling in presence of test compound, relative lux units relative to the SCH23390 control)” value is given as 62%. In the case of `NC1CONC1=O` (racemic) [Compound 291, DL-Cycloserine], the “Compound effect (percent receptor signaling in presence of test compound, relative lux units relative to the SCH23390 control)” value was found to be 94%. Take `CC(C)(C)NCC(O)COc1cccc2[nH]c(=O)[nH]c12.Cl` (racemic) [Compound 334, (±)-CGP-12177A hydrochloride]: the “Compound effect (percent receptor signaling in presence of test compound, relative lux units relative to the SCH23390 control)” value came to 97%.

Take `Br.C=CCN1CCc2c(cc(O)c(O)c2Cl)C(c2ccccc2)C1` (racemic) [Compound 336, (±)-Chloro-APB hydrobromide]: the “Compound effect (percent receptor signaling in presence of test compound, relative lux units relative to the SCH23390 control)” value worked out at 77%. As to `CCCCCCCCCCCCCCC[C@H](O)[C@H](N)CO` (racemic) [Compound 406, DL-erythro-Dihydrosphingosine], the “Compound effect (percent receptor signaling in presence of test compound, relative lux units relative to the SCH23390 control)” value is reported as 88%. The same measure, in the same setting: with `Cl.NCCCC(N)(C(=O)O)C(F)F` (racemic) [Compound 467, DL-alpha-Difluoromethylornithine hydrochloride] the figure was 94%; with `Br.Cc1o[nH]c(=O)c1CC(N)C(=O)O` (racemic) [Compound 563, (±)-AMPA hydrobromide], 101%. Regarding `NC(C(=O)O)C(O)C(=O)O` (racemic) [Compound 585, DL-threo-beta-hydroxyaspartic acid], the “Compound effect (percent receptor signaling in presence of test compound, relative lux units relative to the SCH23390 control)” value worked out at 118%.

Consider `Br.CCCN(CCC)C1CCc2cccc(O)c2C1` (racemic) [Compound 602, (±)-8-Hydroxy-DPAT hydrobromide], for which the “Compound effect (percent receptor signaling in presence of test compound, relative lux units relative to the SCH23390 control)” value was 102%.

`Br.CCCN(CCC)C1CCc2ccc(O)cc2C1` (racemic) [Compound 606, (±)-7-Hydroxy-DPAT hydrobromide]: the “Compound effect (percent receptor signaling in presence of test compound, relative lux units relative to the SCH23390 control)” value is reported as 62%. On the same count and under the same terms, as for `CC(N)(C(=O)O)c1ccc(C(=O)O)cc1` (racemic) [Compound 771, (±)-alpha-Methyl-4-carboxyphenylglycine], the figure is 108%; as for `COc1ccc(CCN(C)CCCC(C#N)(c2cc(OC)c(OC)c(OC)c2)C(C)C)cc1OC.Cl` (racemic) [Compound 782, (±)-Methoxyverapamil hydrochloride], 88%.
